“And” between values parts separate entries of the source, which are not always exact repeats. Equal entries are not always repeated.

The term IC50 denotes the midpoint of a concentration-inhibition curve. A lower IC50 goes with higher potency.

One data set deals with T1, PSMA (Homo sapiens, UniProt Q04609).
T1 construct: endogenous in cells; host or cells: LNCaP cells
Kind of data set: Competitive binding studies on LNCaP cells vs ([125I]BA)KuE (affinity, IC50). To be noted: 1 h, 4° C., natLu complexes. On the procedure: (§1) Competitive binding studies were determined on LNCaP cells (1.5×10^5 cells in 1 mL/well) after incubation at 4° C. for 1 h, using (((S)-1-carboxy-5-(4-([^125I]iodo)benzamido)pentyl)carbamoyl)-L-glutamic acid ([^125I]BA)KuE; 0.2 nM/well) as reference radioligand (n=3). Internalization studies of the radiolabeled ligands (1.0 nM/well) were performed on LNCaP cells (1.25×10^5 cells in 1 mL/well) at 37° C. for 1 h and accompanied by ([^125I]BA)KuE (0.2 nM/well), as reference. Data were corrected for non-specific binding and normalized to the specific internalization observed for the reference (n=3). A detailed description of the experimental procedures was previously published (Wurzer A, et al. J Nucl Med. 2020; 61: 735-742).

The subject of a further data set is LNCaP cells. Kind of data set: PSMA-mediated internalization into LNCaP cells. Type of data set: cell-based. To be noted: 1 h, 37° C., percentage of reference ligand ([125I]BA)KuE, n=3. On the procedure: as §1
A short description of data set [1]: Lipophilicity, n-octanol/PBS (pH 7.4) distribution. Type of data set: physicochemical. To be noted: n-octanol/PBS pH 7.4, 177Lu-labeled, n=6. The method, then: Approximately 1 MBq of the ^177Lu-labeled PSMA ligand was dissolved in 1 mL of a 1:1 mixture (v/v) of phosphate-buffered saline (PBS, pH 7.4) and n-octanol (n=6). After vigorous mixing of the suspension for 3 min, the vial was centrifuged at 15000×g for 3 min and 100 μL aliquots of both layers were measured in a γ-counter. Finally, the ratio of the radioactivity detected in the n-octanol sample and the PBS buffer was calculated and expressed as distribution ratio log D7.4.

The target of another data set is T2, human serum albumin (Homo sapiens, UniProt P02768).
T2 construct: purchased Biowest, Nuaillé, France
T2 sequence (P02768 25-609): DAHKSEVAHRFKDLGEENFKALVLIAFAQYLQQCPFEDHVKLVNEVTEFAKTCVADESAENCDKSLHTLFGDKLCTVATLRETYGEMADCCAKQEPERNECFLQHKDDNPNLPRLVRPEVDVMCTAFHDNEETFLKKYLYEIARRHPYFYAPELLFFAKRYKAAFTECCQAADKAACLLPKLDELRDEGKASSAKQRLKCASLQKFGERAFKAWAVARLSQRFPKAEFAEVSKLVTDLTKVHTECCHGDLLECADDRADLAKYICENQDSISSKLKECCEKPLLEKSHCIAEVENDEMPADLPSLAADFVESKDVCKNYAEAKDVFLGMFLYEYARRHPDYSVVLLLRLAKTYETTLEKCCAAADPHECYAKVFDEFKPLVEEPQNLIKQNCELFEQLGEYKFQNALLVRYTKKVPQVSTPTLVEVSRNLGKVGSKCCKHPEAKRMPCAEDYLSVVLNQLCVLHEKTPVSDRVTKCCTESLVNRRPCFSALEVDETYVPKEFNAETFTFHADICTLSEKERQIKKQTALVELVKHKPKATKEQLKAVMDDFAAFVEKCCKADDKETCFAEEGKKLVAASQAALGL
Kind of data set: Binding to human serum albumin by albumin mediated size exclusion chromatography (AMSEC). The data set is classed as in vitro ADME. To be noted: size exclusion chromatography with HSA in the mobile phase, 177Lu-labeled. The method, then:
Binding of ^177Lu-labeled ligands to HSA was assessed by albumin mediated size exclusion chromatography (AMSEC). A gel filtration size exclusion column (Superdex 75 Increase 10/300 GL, GE Healthcare, Uppsala, Sweden) was used with HSA buffer at physiological concentration (700 μM, Biowest, Nuaillé, France) as mobile phase (constant flow rate of 0.8 mL/min at room temperature). For calibration purposes, a commercially available set of proteins (GE Healthcare, Buckinghamshire, UK) was used. Under these chromatographic conditions, the retention time of a radioligand (1.0 MBq, 10-20 GBq/μmol) depends on the extent of HSA/ligand interactions and thus, by means of the calibration with the aforementioned set of proteins, can be translated into an AMW (expressed in kDa) as a parameter allowing to quantify the extent of HSA binding. The detection window ranges between 2.3 kDa ([^18F]Fluoride; no HSA interaction) and 70.2 kDa (experimental molecular weight of HSA; maximum HSA interaction).
On the technique in general: SEC sorts molecules by how far they enter the pores of the column.

The subject of data set [2] is LNCaP tumor-bearing male CB-17 SCID mice. Kind of data set: Ex vivo biodistribution in LNCaP tumor-bearing CB-17 SCID mice. To be noted: 24 h p.i.; for Tumor uptake / Activity accumulation tumor: LNCaP tumor; for Tumor-to-organ ratio adrenals / Tumor-to-organ ratio blood / Tumor-to-organ ratio bone / Tumor-to-organ ratio heart / Tumor-to-organ ratio intestine / Tumor-to-organ ratio kidney / Tumor-to-organ ratio liver / Tumor-to-organ ratio lung / Tumor-to-organ ratio muscle / Tumor-to-organ ratio pancreas / Tumor-to-organ ratio parotid gl. / Tumor-to-organ ratio spleen / Tumor-to-organ ratio stomach / Tumor-to-organ ratio submand. gl.: n=5, mean of ratios per mouse; for Activity accumulation adrenals / Activity accumulation blood / Activity accumulation bone / Activity accumulation heart / Activity accumulation intestine / Activity accumulation liver / Activity accumulation lung / Activity accumulation muscle / Activity accumulation pancreas / Activity accumulation parotid gl. / Activity accumulation spleen / Activity accumulation stomach / Activity accumulation submand. gl. / Activity accumulation tumor / Activity accumulation kidney: n=5, mean, complete dataset. The method, then:
All animal experiments were conducted in accordance with general animal welfare regulations in Germany (German animal protection act, as amended on 18 May 2018, Art. 141 G v. 29 Mar. 2017 I 626, approval no. 55.2-1-54-2532-71-13) and the institutional guidelines for the care and use of animals. LNCaP tumor xenografts were established in 6-8 weeks old male CB-17 SCID mice as described previously (Wurzer A, et al. J Nucl Med. 2020; 61: 735-742). Biodistribution Studies. The ^177Ludabeled PSMA inhibitors (2-5 MBq; 0.1 nmol) were injected under isoflurane anesthesia into the tail vein of LNCaP tumor-bearing male CB-17 SCID mice that were sacrificed 24 h post injection (p.i.) (n=4-5). Selected organs were removed, weighed, and measured in a counter. All rhPSMA ligands were evaluated in mice during the same time period (Q1/2020), whereas ^177Ludabeled PSMA-617 and PSMA I&T (Wirtz M, et al. EJNMMI Res. 2018; 8: 84) were assessed previously using the identical cell line, mouse model and experimental procedure.

For data set [3] the following is noted: literature, Wängler et al. Bioconjug Chem 2010; cited from earlier work.

T1 sequence (Q04609 whole entry): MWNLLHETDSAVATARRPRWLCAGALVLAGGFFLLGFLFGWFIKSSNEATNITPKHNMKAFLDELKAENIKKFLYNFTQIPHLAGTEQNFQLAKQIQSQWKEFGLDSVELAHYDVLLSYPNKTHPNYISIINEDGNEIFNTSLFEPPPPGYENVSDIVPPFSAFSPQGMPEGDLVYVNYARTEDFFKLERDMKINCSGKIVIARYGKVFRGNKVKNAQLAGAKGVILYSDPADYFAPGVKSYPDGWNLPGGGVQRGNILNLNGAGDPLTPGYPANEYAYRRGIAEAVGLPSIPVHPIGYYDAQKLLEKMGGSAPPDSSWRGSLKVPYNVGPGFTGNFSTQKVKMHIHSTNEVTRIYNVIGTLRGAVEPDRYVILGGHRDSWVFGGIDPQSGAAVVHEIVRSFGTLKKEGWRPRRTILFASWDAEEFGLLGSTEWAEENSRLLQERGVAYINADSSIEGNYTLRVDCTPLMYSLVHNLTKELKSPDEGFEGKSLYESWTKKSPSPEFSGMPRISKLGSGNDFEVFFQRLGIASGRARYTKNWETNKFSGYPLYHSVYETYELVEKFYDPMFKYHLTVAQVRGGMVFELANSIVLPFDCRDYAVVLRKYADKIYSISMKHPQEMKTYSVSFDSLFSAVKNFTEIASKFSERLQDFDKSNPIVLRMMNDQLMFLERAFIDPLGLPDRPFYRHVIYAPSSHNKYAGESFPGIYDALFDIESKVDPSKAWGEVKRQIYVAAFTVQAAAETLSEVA

For `CC(C)(C)[Si]([19F])(c1ccc(C(=O)NC[C@@H](NC(=O)CN2CCN(CC(=O)O)CCN(CC(=O)O)CCN(CC(=O)O)CC2)C(=O)N[C@H](CCCCNC(=O)CCC(=O)NCCC[C@@H](NC(=O)CC[C@H](NC(=O)N[C@@H](CCC(=O)O)C(=O)O)C(=O)O)C(=O)O)C(=O)O)cc1)C(C)(C)C` [[^177Lu, ^19F]rhPSMA-10.1, metal not drawn], the IC50 at PSMA (n=3) amounted to 2.76 ± 0.51 nM. The “Internalization [% IBA-KuE]” value with LNCaP cells turned out to be 177.4 ± 14.6 % IBA-KuE. Also, the logD7.4 in data set [1] is −3.8 and −3.78 ± 0.06. Further, the “MWapp [kDa] (apparent molecular weight, AMW; HSA binding)” value (“MWapp [kDa]” for short) at human serum albumin amounted to 25.1 kDa. Also, in data set [2], the “Kidney uptake as percentage of that of [177Lu, 19F]rhPSMA-7.3” value worked out at 20%; the “Tumor-to-blood ratio, times higher compared to [177Lu, 19F]rhPSMA-7.3” value was determined as 2 times; the “Tumor-to-blood ratio, times higher compared to [177Lu]PSMA-617” value came to 7 times; the “Tumor uptake” value was determined as 9.8±0.3 % ID/g. In data set [2], the Tumor-to-organ ratio adrenals is recorded as 137.57, the Tumor-to-organ ratio blood is listed as 9117, the Tumor-to-organ ratio bone is listed as 389.88 and the Tumor-to-organ ratio heart was 641.37. In data set [2], the Tumor-to-organ ratio intestine stood at 250.87, the Tumor-to-organ ratio kidney amounted to 5.5, the Tumor-to-organ ratio liver was 72.52 and the Tumor-to-organ ratio lung is listed as 404.28. For the same molecule, in data set [2], the Tumor-to-organ ratio muscle was 2431.90, the Tumor-to-organ ratio pancreas is given as 797.72, the “Tumor-to-organ ratio parotid gl.” value worked out at 206.18 and the Tumor-to-organ ratio spleen is 63.66. In data set [2], the Tumor-to-organ ratio stomach stood at 351.52, the “Tumor-to-organ ratio submand. gl.” value was found to be 344.45, the Activity accumulation adrenals stood at 0.0983 % ID/g and the Activity accumulation blood is recorded as 0.0019 % ID/g. Besides, in data set [2], the Activity accumulation bone worked out at 0.0298 % ID/g, the Activity accumulation heart was 0.0192 % ID/g, the Activity accumulation intestine is reported as 0.0642 % ID/g and the Activity accumulation liver came out at 0.1631 % ID/g. Further, in data set [2], the Activity accumulation lung amounted to 0.0346 % ID/g, the Activity accumulation muscle turned out to be 0.0053 % ID/g, the Activity accumulation pancreas was 0.0155 % ID/g and the “Activity accumulation parotid gl.” value is 0.0551 % ID/g. In addition, in data set [2], the Activity accumulation spleen is listed as 0.1828 % ID/g, the Activity accumulation stomach was 0.0388 % ID/g, the “Activity accumulation submand. gl.” value amounted to 0.0338 % ID/g and the Activity accumulation tumor is on record as 11.5563 % ID/g. Further, in data set [2] (listed as [^177Lu]rhPSMA-10.1), the Tumor-to-organ ratio blood is reported as 9117.20, the Tumor-to-organ ratio kidney amounted to 5.52 and the Activity accumulation kidney worked out at 2.4219 % ID/g.

`CC(C)(C)[Si](F)(c1ccc(C(=O)NC[C@H](NC(=O)CN2CCN(CC(=O)[O-])CCN(CC(=O)[O-])CCN(CC(=O)[O-])CC2)C(=O)N[C@H](CCCCNC(=O)CCC(=O)NCCC[C@@H](NC(=O)CC[C@H](NC(=O)N[C@@H](CCC(=O)O)C(=O)O)C(=O)O)C(=O)O)C(=O)O)cc1)C(C)(C)C.[Lu+3]` [[^177Lu, ^19F]rhPSMA-10.2] yielded an IC50 on PSMA (n=3) of 3.61 ± 0.59 nM. Also, the “Internalization [% IBA-KuE]” value with LNCaP cells was found to be 205.6 ± 8.3 % IBA-KuE. Besides, the logD7.4 in data set [1] was −3.8 and −3.83 ± 0.10. For the same molecule, on human serum albumin, the “MWapp [kDa]” value was determined as 21.8 kDa. Moreover, the “Tumor uptake” value in data set [2] amounted to 10.5±3.3 % ID/g.

With `O=C([O-])CN1CCN(CC(=O)[O-])CCN(C(CCC(=O)N[C@H](Cc2ccc(O)c(I)c2)C(=O)N[C@H](Cc2ccccc2)C(=O)N[C@H](CCCCNC(=O)CCCCCCC(=O)NCCCC[C@H](NC(=O)N[C@@H](CCC(=O)O)C(=O)O)C(=O)O)C(=O)O)C(=O)O)CCN(CC(=O)[O-])CC1.[Lu+3]` (stereo partly drawn) [[^177Lu]PSMA I&T], on PSMA (n=3), the IC50 was determined as 4.17 ± 0.78 nM. The IC50 on PSMA (n=3, listed as [^natLu]PSMA I&T) is 4.2 ± 0.8 nM. In addition, in the data set on LNCaP cells, the “Internalization [% IBA-KuE]” value was 145±14 % IBA-KuE and 145.4 ± 13.8 % IBA-KuE. In addition, the logD7.4 in data set [1] is reported as −4.1 ± 0.1. Moreover, at human serum albumin, the “MWapp [kDa]” value is reported as 5.3 kDa. Besides, in data set [2], the “Tumor uptake” value is reported as 4.1±1.1 % ID/g, the Tumor-to-organ ratio adrenals turned out to be 5.62, the Tumor-to-organ ratio blood is reported as 1288 and the Tumor-to-organ ratio bone came out at 358.26. In addition, in data set [2], the Tumor-to-organ ratio heart was found to be 366.06, the Tumor-to-organ ratio intestine amounted to 191.31, the Tumor-to-organ ratio kidney came to 0.6 and the Tumor-to-organ ratio liver amounted to 155.09. For the same molecule, in data set [2], the Tumor-to-organ ratio lung was determined as 65.08, the Tumor-to-organ ratio muscle is recorded as 1964.92, the Tumor-to-organ ratio pancreas is recorded as 336.33 and the “Tumor-to-organ ratio parotid gl.” value is 63.21. In addition, in data set [2], the Tumor-to-organ ratio spleen turned out to be 9.06, the Tumor-to-organ ratio stomach is 236.69, the “Tumor-to-organ ratio submand. gl.” value was found to be 136.76 and the Activity accumulation adrenals came out at 1.3590 % ID/g. In data set [2], this molecule showed an Activity accumulation blood of 0.0061 % ID/g, an Activity accumulation bone of 0.0209 % ID/g, an Activity accumulation heart of 0.0208 % ID/g and an Activity accumulation intestine of 0.0507 % ID/g. For the same molecule, in data set [2], the Activity accumulation kidney is given as 15.9±12.0 % ID/g, the Activity accumulation liver is reported as 0.0553 % ID/g, the Activity accumulation lung was determined as 0.1138 % ID/g and the Activity accumulation muscle is 0.0051 % ID/g. Further, in data set [2], the Activity accumulation pancreas was determined as 0.0295 % ID/g, the “Activity accumulation parotid gl.” value came to 0.1346 % ID/g, the Activity accumulation spleen came to 1.2047 % ID/g and the Activity accumulation stomach amounted to 0.0326 % ID/g. In data set [2], the “Activity accumulation submand. gl.” value is reported as 0.0581 % ID/g and the Activity accumulation tumor is listed as 7.5780 % ID/g. Also, in data set [2] (listed as [^177Lu] PSMA-I&T), the Tumor-to-organ ratio blood is given as 1288.54 and the Tumor-to-organ ratio kidney is 0.61. In addition, in data set [2] (listed as [^177Lu]PSMA-I&T), the Activity accumulation kidney is listed as 15.8527 % ID/g.

Regarding “SIFA-Asn(AcNH-β-Glc)-PEG-Tyr^3-octreotate”, the “log P(ow)” value in data set [3] is 0.96.

Take SIFA-Asn(AcNH-β-Glc)-Tyr^3-octreotate: the “log P(ow)” value in data set [3] is recorded as 1.23.

The record behind these values is patent publication US20240066155A1, “DUAL MODE RADIOTRACER AND -THERAPEUTICS” (priority 2021, published 2024).
